Results reported in US8043827B2, “Single molecule-format real-time bioluminescence imaging probe” (National Institute of Advanced Industrial Science and …, priority 2007, dated 2011).
Read-outs that look alike come from different tables or passages of the source. Blank lines part the entries; values can stand above or below the molecule they belong to.

Tests used:
Assay type in all cases: cell-based
[1] = tested on: ATP receptor which is an endogenous membrane receptor of COS-7 cells; experiment: ATP concentration-dependent luminescence change in COS-7 cells carrying pSica-5
Protocol: For example, an ATP receptor which is an endogenous membrane receptor of COS-7 cells, is stimulated by 100 mM ATP, to thereby increase the concentration of Ca^2+. CaM in the probe responds to the elevated Ca^2+ Level, and as a result, the luminescence intensity is reduced. This phenomenon depends on the ATP concentration;
pSica-5 was transfected into COS-7 cells which have been cultured on a 24-well plate, using a transfection reagent (TransIT-LT1 (Mirus)). Then, the cells were cultured for 16 hours, and then the culture medium was exchanged with 200 μL of a mixed solution of a HBSS buffer (containing 1.3 mM Ca^2+) and the substrate. The values of luminescence change obtained thereafter were monitored by a luminescent plate reader (FIG. 5). After about 5 minutes, ATP was added at different concentrations, and changes in the luminescence values obtained thereafter were monitored. […] Meanwhile, no detectable change was recognized in the luminescence values for the buffer solution itself (phosphate buffer saline; PBS).

[2] = tested on: ATP receptors present on the cell membrane of MCF-7 cells; experiment: Intracellular Ca^2+ level increased by ATP stimulation, MCF-7 cells transfected with pSica-5; details: 1 mM ATP; host cell MCF-7 transfected with pSica-5
Protocol: (§1) pSica-5 was transfected into COS-7 cells or HeLa cells which have been cultured on a 24-well plate, using a transfection reagent (TransIT-LT1 (Mirus)). Then, the cells were cultured for 16 hours, and then the cell culture medium was exchanged with 200 μL of a PBS buffer solution supplemented with coeleterazine, which is the specific substrate, and 2 μM ionomycin. The values of luminescence change obtained thereafter were monitored by a luminescent plate reader (Mithras LB940; Berthold) (FIG. 7(A)). Four minutes after stabilization of the background luminescence, Ca^2+ was added to the cells on the wells at concentrations ranging from 10^−3.5 M to 10^−5.5 M. Thereafter, the changes in the luminescence values were immediately monitored by the above-mentioned luminescence plate reader. Changes in the luminescence values, which were dependent on the concentration of added Ca^2+, were monitored. Based on the values of luminescence fluctuations in this Ca^2+ concentration range, three kinds of calibration curves were produced with respect to the Ca^2+ concentration in the cultured cells. Variances in the luminescence intensity induced by the ATP concentration in COS-7, MCF-7 and HeLa cells, which had been respectively transfected with pSica-5, were measured (FIG. 7(B)). […]

[3] = tested on: ATP receptors present on the cell membrane of COS-7 cells; experiment: Intracellular Ca^2+ level increased by ATP stimulation, COS-7 cells transfected with pSica-5; details: 1 mM ATP; host cell COS-7 transfected with pSica-5
Protocol: as §1

calmodulin (CaM) = target: T1, calmodulin (CaM) (Xenopus laevis, UniProt P0DP33); experiment: Ca^2+ concentration-dependent luminescence intensity in living cells transfected with pSica-5; details: for EC50: 2 μM ionomycin, PBS, read-out: 50% effective concentration (EC50) based on changes in luminescence intensities
T1 construct: (CaM; 1-150 AA; GenBank/NM001087395); expressed in transfected cells; host or cells: COS-7 or HeLa cells, pSica-5 in pcDNA3.1(+)
Protocol: PCR amplification was carried out to introduce KpnI and BamHI, which are restriction enzyme sites, into the two termini of a cDNA encoding calmodulin, which is a Xenopus laevis (African clawed frog)-derived Ca^2+ recognition protein (CaM; 1-150 AA; GenBank/NM001087395). On the other hand, as an optimal luminescent enzyme which can be linked to the CaM as a single-molecule-format probe, Gaussia princeps-derived luciferase (GLuc; 1-189 AA; GenBank/AY015993) was used. Five fragment pairs were generated by fragmentizing five sites of the cDNA of GLuc by PCR reaction, and were used in the examination of the optimal partition sites for GLuc (FIG. 3), which will be discussed in Example 2.
pSica-5 was transfected into COS-7 cells or HeLa cells which have been cultured on a 24-well plate, using a transfection reagent (TransIT-LT1 (Mirus)). Then, the cells were cultured for 16 hours, and then the cell culture medium was exchanged with 200 μL of a PBS buffer solution supplemented with coeleterazine, which is the specific substrate, and 2 μM ionomycin. The values of luminescence change obtained thereafter were monitored by a luminescent plate reader (Mithras LB940; Berthold) (FIG. 7(A)). Four minutes after stabilization of the background luminescence, Ca^2+ was added to the cells on the wells at concentrations ranging from 10^−3.5 M to 10^−5.5 M. Thereafter, the changes in the luminescence values were immediately monitored by the above-mentioned luminescence plate reader. Changes in the luminescence values, which were dependent on the concentration of added Ca^2+, were monitored. Based on the values of luminescence fluctuations in this Ca^2+ concentration range, three kinds of calibration curves were produced with respect to the Ca^2+ concentration in the cultured cells.

[4] = target: T2, GR LBD (human glucocorticoid receptor) (Homo sapiens, UniProt P04150); experiment: Ligand sensitivity of living cells transfected with pSimgr; details: steroid hormone sensitivity (FIG. 9(C))
T2 construct: expressed in transfected cells
T2 sequence (P04150 524-758 limits assumed): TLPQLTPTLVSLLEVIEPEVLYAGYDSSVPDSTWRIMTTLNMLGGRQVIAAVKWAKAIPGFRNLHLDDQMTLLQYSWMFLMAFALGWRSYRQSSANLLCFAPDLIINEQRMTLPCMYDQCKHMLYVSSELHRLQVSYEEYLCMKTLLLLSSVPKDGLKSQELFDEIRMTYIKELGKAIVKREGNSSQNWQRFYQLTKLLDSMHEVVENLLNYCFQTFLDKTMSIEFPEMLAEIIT
Excerpt: These plasmids were designated as pSimar and pSimgr, respectively.

Structure (SMILES): Nc1ncnc2c1ncn2[C@@H]1O[C@H](COP(=O)(O)OP(=O)(O)OP(=O)(O)O)[C@@H](O)[C@H]1O [ATP]
changes in the luminescence values ([1]; COS-7 cells with pSica-5, 1 mM, 100 μM and 10 μM ATP, HBSS buffer containing 1.3 mM Ca^2+): stimulant dose-dependent changes
luminescence intensity ([1]; COS-7 cells, probe with GLuc dissected at site #5, 100 mM ATP (FIG. 5 legend)): reduced
Measured average of Ca^2+ concentrations (ave) [2]: 13 µM
Measured average of Ca^2+ concentrations (ave) [3]: 37.4 µM

EC50 (calmodulin (CaM); COS-7 cells transfected with pSica-5): 25 µM
EC50 (calmodulin (CaM); HeLa cells transfected with pSica-5): 50 µM
dissociation coefficient (Kd) between CaM and Ca^2+ (calmodulin (CaM); HeLa cells, from the luminescence values): 0.63×10^−17 M^4
Structure (SMILES): [Ca+2] [Ca^2+]

Structure (SMILES): C[C@]12CCC(=O)C=C1CC[C@@H]1[C@@H]2[C@@H](O)C[C@@]2(C)[C@H]1CC[C@]2(O)C(=O)CO [cortisol]
sensitivity of cells transfected with pSimgr [4]: strong sensitivity
